Measurements published in US11993581B2, “Pyridazine compounds for inhibiting Nav1.8” (Lieber Institute, Inc., priority 2018, dated 2024).

Target: T1, human Nav1.8 (hNav1.8) ion channel (Homo sapiens, UniProt Q9Y5Y9)
T1 construct: expressed in transfected cells
Assay: Nav1.8 inhibition, estimated IC50 (Nav1.8 fluorescence, PatchXpress and/or IonFlux HT automated patch clamp assay)
Type: cell-based
Conditions: HEK293 cells stably expressing hNav1.8; determined using one or more of the described methods; read-out: Activity range (estimated IC50)
Procedure: The ability of pyridine carboxamide derivatives exemplified above to inhibit the Nav1.8 channel was determined using one or more of the methods described below.
HEK Nav1.8 β1/β2 Stably Expressing Cell Line
A HEK293 cell line stably expressing the human Nav1.8 (hNav1.8) ion channel with β1/β2 subunits was constructed. The cell line is suitable for IC50 determination in fluorescence and electrophysiological based assays. It is also suitable to conduct mechanism of action pharmacology studies in electrophysiological assays. HEK293 Nav1.8 cells are grown as adherent monolayers in DMEM/high glucose media, 10% fetal bovine serum, Na pyruvate (2 mM), Hepes (10 mM) with selection agents G418 (400 mg/L) and puromycin (0.5 mg/L) at 37 degrees C., 10% CO2.
Nav1.8 Fluorescence Inhibition Assay
Compounds were made up to or supplied as a 10-mM stock solution using DMSO as the vehicle. Concentration-response curves were generated using a Matrix multichannel pipettor. Compound source plates were made by diluting 10 mM compound stocks to create 500 μM (100×) solutions in DMSO in 96-well v-bottom plates. Compounds were then serially diluted in 100% DMSO to generate a 5 point, 4-fold dilution scheme dose response curve. 2 μL of the 100× dose response curves were then added to preincubation and stimulation assay plates. 100 μL of pre-incubation buffer and 200 μl of stimulation buffer was then added to the plates resulting in a final assay test concentration range of 5 μM to 0.02 μM with a final DMSO concentration of 1%.
On the day of assay, plates were washed to remove cell culture media using 2K EBSS buffer (135 mM NaCl, 2 mM KCl, 5 mM Glucose, 2 mM CaCl2, 1 mM MgCl2, 10 mM HEPES, pH 7.4). The Na-sensitive fluorescent dye, Asante Natrium Green-2 (ANG-2) was incubated for 60 min to allow equilibration and then washed with 2K EBSS. Plates were then transferred to a fluorescence plate reader (FLIPR™, Molecular Devices) for fluorescence measurement using an excitation wavelength of 490 nm and an emission wavelength of 565 nm. Compounds were pre-incubated for 5 min at final test concentration in the presence of ouabain (30 μM) to inhibit Na+ efflux through Na+/K+ exchanger. Following the pre-incubation phase, hNav1.8 channels were stimulated with 10 μM of the pyrethroid deltamethrin to prevent channel inactivation. The assay was run for 15 minutes with vehicle and 30 μM tetracaine serving as negative and positive controls, respectively. The peak change in fluorescence relative to negative and positive control wells was calculated and fit with a logistic equation to determine IC50.
PatchXpress Nav1.8 Inhibition Assay
HEK-Nav1.8 β1/β2 cells were recorded in whole cell patch-clamp using the PatchXpress automated patch clamp platforms (Molecular Devices). Cell suspensions were obtained by trypsinization of adherent monolayers, followed by gentle rocking for minimally 30 min. Compounds were prepared from 10 mM DMSO stocks.
Nav1.8 channel variants were evaluated using Protocol 1 in which cells were initially voltage clamped at a holding potential of −100 mV to maintain Nav1.8 in a closed resting state. After current amplitude becomes stable, the mid-point voltage of steady state inactivation was determined for each cell using a series of 5 sec conditioning steps to increasingly depolarized voltages (−100 to 0 mV) The holding potential was then reset to a voltage that produces ˜50% inactivation (Vhalf-set automatically via PatchXpress scripts) so that closed and inactivated channel inhibition could be assessed. Protocol 1 was run at a frequency of 0.1 Hz until current amplitude is steady (automatically determined by PatchXpress scripts). The effect of test reagent on Nav current amplitude was monitored using custom PatchXpress stability scripts which determines the timing of compound addition and washout.
Data were processed and analyzed using DataXpress 2.0 (Molecular Devices). […]

T1 sequence (Q9Y5Y9 whole entry): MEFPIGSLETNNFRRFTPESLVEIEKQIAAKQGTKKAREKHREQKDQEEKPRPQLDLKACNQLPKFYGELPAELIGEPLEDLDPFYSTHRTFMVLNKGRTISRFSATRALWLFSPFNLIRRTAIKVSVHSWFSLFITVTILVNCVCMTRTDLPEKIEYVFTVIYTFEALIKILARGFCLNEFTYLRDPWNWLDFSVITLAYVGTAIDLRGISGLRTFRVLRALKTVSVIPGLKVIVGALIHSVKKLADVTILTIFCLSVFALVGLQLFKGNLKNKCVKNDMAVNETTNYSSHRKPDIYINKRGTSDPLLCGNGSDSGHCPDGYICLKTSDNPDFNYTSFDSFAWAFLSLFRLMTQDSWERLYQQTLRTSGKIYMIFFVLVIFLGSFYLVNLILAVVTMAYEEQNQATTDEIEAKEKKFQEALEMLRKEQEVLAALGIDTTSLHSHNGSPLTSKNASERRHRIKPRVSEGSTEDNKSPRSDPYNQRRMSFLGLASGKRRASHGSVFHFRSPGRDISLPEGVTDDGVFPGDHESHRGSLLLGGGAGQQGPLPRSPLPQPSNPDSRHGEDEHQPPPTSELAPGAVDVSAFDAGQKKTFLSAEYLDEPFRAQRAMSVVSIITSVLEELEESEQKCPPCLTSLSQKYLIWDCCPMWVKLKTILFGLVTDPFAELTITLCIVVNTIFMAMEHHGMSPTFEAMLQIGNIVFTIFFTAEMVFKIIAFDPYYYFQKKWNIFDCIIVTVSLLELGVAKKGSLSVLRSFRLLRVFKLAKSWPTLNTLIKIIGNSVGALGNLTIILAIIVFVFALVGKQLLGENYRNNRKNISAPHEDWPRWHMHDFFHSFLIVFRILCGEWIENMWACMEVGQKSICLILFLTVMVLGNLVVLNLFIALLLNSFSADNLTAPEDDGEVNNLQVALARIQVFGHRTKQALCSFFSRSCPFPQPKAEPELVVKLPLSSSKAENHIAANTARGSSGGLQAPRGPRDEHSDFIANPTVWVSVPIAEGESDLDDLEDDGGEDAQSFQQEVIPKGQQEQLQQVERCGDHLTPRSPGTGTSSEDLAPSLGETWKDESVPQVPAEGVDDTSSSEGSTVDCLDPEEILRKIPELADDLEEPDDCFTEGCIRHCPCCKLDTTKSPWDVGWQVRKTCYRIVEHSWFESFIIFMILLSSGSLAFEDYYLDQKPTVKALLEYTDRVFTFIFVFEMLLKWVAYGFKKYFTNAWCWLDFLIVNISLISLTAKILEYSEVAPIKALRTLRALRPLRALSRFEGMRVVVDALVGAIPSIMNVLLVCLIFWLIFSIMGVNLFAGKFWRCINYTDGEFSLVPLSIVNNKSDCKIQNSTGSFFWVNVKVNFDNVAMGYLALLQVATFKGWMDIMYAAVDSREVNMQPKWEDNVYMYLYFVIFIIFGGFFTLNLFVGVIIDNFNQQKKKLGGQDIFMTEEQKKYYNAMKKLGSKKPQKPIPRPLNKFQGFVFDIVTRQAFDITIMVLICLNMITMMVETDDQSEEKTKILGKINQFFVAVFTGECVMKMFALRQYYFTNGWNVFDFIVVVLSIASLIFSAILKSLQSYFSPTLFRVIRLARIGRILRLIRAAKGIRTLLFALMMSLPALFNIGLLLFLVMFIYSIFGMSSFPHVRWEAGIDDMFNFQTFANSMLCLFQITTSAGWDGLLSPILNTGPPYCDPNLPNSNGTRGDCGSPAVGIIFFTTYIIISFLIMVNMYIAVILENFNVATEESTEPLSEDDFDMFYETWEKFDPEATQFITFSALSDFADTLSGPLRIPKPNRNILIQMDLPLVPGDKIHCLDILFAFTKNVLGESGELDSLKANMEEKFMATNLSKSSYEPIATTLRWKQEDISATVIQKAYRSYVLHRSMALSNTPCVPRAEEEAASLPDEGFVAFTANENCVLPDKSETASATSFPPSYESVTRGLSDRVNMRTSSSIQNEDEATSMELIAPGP
T1 sequence (Q07699 19-218 partner): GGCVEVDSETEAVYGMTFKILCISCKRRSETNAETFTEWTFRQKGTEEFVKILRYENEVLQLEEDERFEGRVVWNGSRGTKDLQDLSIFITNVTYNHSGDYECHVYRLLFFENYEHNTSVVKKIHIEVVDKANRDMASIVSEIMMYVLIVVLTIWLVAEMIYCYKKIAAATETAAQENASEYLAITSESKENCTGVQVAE

| IC50 [nM] | SMILES |
| --- | --- |
| < 500 | CN(C)c1ncccc1CNC(=O)c1cnnc(-c2ccc(OCC3CC3)c(Cl)c2)c1 [Example 28, 6-[3-chloro-4-(cyclopropylmethoxy)phenyl]-N-[[2-(dimethylamino)-3-pyridyl]methyl]pyridazine-4-carboxamide] |
| < 500 | O=C(NCc1cccnc1N1CCCC1)c1cnnc(-c2ccc(OCC3CC3)c(Cl)c2)c1 [Example 29, 6-[3-chloro-4-(cyclopropylmethoxy)phenyl]-N-[(2-pyrrolidin-1-yl-3-pyridyl)methyl]pyridazine-4-carboxamide] |
| < 500 | O=C(NCc1cccnc1N1CCCCC1)c1cnnc(-c2ccc(OCC3CC3)c(Cl)c2)c1 [Example 30, 6-[3-chloro-4-(cyclopropylmethoxy)phenyl]-N-[[2-(1-piperidyl)-3-pyridyl]methyl]pyridazine-4-carboxamide] |
| < 500 | O=C(NCc1cc(F)cnc1N1CCOCC1)c1cnnc(-c2ccc(OCC3CC3)c(Cl)c2)c1 [Example 31, 6-[3-chloro-4-(cyclopropylmethoxy)phenyl]-N-[(5-fluoro-2-morpholino-3-pyridyl)methyl]pyridazine-4-carboxamide] |
| > 1000 | O=C(NCc1cncnc1N1CCOCC1)c1cnnc(-c2ccc(OCC3CC3)c(Cl)c2)c1 [Example 32, 6-[3-chloro-4-(cyclopropylmethoxy)phenyl]-N-[(4-morpholinopyrimidin-5-yl)methyl]pyridazine-4-carboxamide] |
| < 500 | O=C(NCc1nccnc1N1CCOCC1)c1cnnc(-c2ccc(OCC3CC3)c(Cl)c2)c1 [Example 33, 6-[3-chloro-4-(cyclopropylmethoxy)phenyl]-N-[(3-morpholinopyrazin-2-yl)methyl]pyridazine-4-carboxamide] |
| < 500 | O=C(NCc1cccnc1N1C[C@@H]2C[C@H]1CO2)c1cnnc(-c2ccc(OCC3CC3)c(Cl)c2)c1 [Example 34, 6-[3-chloro-4-(cyclopropylmethoxy)phenyl]-N-[[2-[(1S,4S)-2-oxa-5-azabicyclo[2.2.1]heptan-5-yl]-3-pyridyl]methyl]pyridazine-4-carboxamide] |
| 500 to 1000 | CS(=O)(=O)c1ccccc1CNC(=O)c1cnnc(-c2ccc(OCC3CC3)c(Cl)c2)c1 [Example 35, 6-[3-chloro-4-(cyclopropylmethoxy)phenyl]-N-[(2-methylsulfonylphenyl)methyl]pyridazine-4-carboxamide] |
| < 500 | COc1ccccc1CNC(=O)c1cnnc(-c2ccc(OCC3CC3)c(Cl)c2)c1 [Example 36, 6-[3-chloro-4-(cyclopropylmethoxy)phenyl]-N-[(2-methoxyphenyl)methyl]pyridazine-4-carboxamide] |
| < 500 | [2H]C1([2H])OC([2H])([2H])C([2H])([2H])N(c2ncccc2CNC(=O)c2cnnc(-c3ccc(OCC4CC4)c(Cl)c3)c2)C1([2H])[2H] [Example 38, 6-[3-chloro-4-(cyclopropylmethoxy)phenyl]-N-[[2-(2,2,3,3,5,5,6,6-octadeuteriomorpholin-4-yl)-3-pyridyl]methyl]pyridazine-4-carboxamide] |
| 500 to 1000 | O=C(NCc1cccnc1N1CCOC(C(F)(F)F)C1)c1cnnc(-c2ccc(OCC3CC3)c(Cl)c2)c1 (stereo not drawn) [Example 39, 6-[3-chloro-4-(cyclopropylmethoxy)phenyl]-N-[[2-[2-(trifluoromethyl)morpholin-4-yl]-3-pyridyl]methyl]pyridazine-4-carboxamide] |
| < 500 | O=C(NCc1cncc(F)c1)c1cnnc(-c2ccc(OCC3CC3)c(Cl)c2)c1 [Example 40, 6-[3-chloro-4-(cyclopropylmethoxy)phenyl]-N-[(5-fluoro-3-pyridyl)methyl]pyridazine-4-carboxamide] |
| < 500 | CCC1CN(c2ncccc2CNC(=O)c2cnnc(-c3ccc(OCC4CC4)c(Cl)c3)c2)CCO1 (stereo not drawn) [Example 41, 6-[3-chloro-4-(cyclopropylmethoxy)phenyl]-N-[[2-(2-ethylmorpholin-4-yl)-3-pyridyl]methyl]pyridazine-4-carboxamide] |
| < 500 | CC(C)Oc1ncccc1CNC(=O)c1cnnc(-c2ccc(OCC3CC3)c(Cl)c2)c1 [Example 42, 6-[3-chloro-4-(cyclopropylmethoxy)phenyl]-N-[(2-isopropoxy-3-pyridyl)methyl]pyridazine-4-carboxamide] |
| 500 to 1000 | COc1ncccc1C(C)NC(=O)c1cnnc(-c2ccc(OCC3CC3)c(Cl)c2)c1 (stereo not drawn) [Example 43, 6-(3-chloro-4-(cyclopropylmethoxy)phenyl)-N-(1-(2-methoxypyridin-3-yl)ethyl)pyridazine-4-carboxamide] |
| < 500 | O=C(NCc1cccnc1N1CCOCC1)c1cnnc(-c2ccc(OCC3CCC3)c(Cl)c2)c1 [Example 44, 6-[3-chloro-4-(cyclobutylmethoxy)phenyl]-N-[(2-morpholino-3-pyridyl)methyl]pyridazine-4-carboxamide] |
| < 500 | CC(Oc1ccc(-c2cc(C(=O)NCc3cccnc3N3CCOCC3)cnn2)cc1Cl)C1CC1 (stereo not drawn) [Example 45, 6-[3-chloro-4-(1-cyclopropylethoxy)phenyl]-N-[(2-morpholino-3-pyridyl)methyl]pyridazine-4-carboxamide] |
| < 500 | O=C(NCc1cccnc1N1CCOCC1)c1cnnc(-c2ccc(OCC3CC3)c(F)c2)c1 [Example 46, 6-[4-(cyclopropylmethoxy)-3-fluoro-phenyl]-N-[(2-morpholino-3-pyridyl)methyl]pyridazine-4-carboxamide] |
| < 500 | O=C(NCc1cccnc1N1CCOCC1)c1cnnc(-c2ccc(OCC3CC3)c(C(F)(F)F)c2)c1 [Example 47, 6-[4-(cyclopropylmethoxy)-3-(trifluoromethyl)phenyl]-N-[(2-morpholino-3-pyridyl)methyl]pyridazine-4-carboxamide] |
| > 1000 | COc1ncccc1CNC(=O)c1cnnc(-c2ccc(OCC3CC3)cc2)c1 [Example 48, 6-[4-(cyclopropylmethoxy)phenyl]-N-[(2-methoxy-3-pyridyl)methyl]pyridazine-4-carboxamide] |
| > 1000 | O=C(NCc1cc(F)cnc1N1CCOCC1)c1cnnc(-c2ccc(OCC3CC3)cc2)c1 [Example 49, 6-[4-(cyclopropylmethoxy)phenyl]-N-[(5-fluoro-2-morpholino-3-pyridyl)methyl]pyridazine-4-carboxamide] |
| > 1000 | CC1COCCN1c1ncccc1CNC(=O)c1cnnc(-c2ccc(OCC3CC3)cc2)c1 (stereo not drawn) [Example 50, 6-[4-(cyclopropylmethoxy)phenyl]-N-[[2-(3-methylmorpholin-4-yl)-3-pyridyl]methyl]pyridazine-4-carboxamide] |
| > 1000 | O=C(NCc1cccnc1N1CC2(COC2)C1)c1cnnc(-c2ccc(OCC3CC3)cc2)c1 [Example 52, 6-[4-(cyclopropylmethoxy)phenyl]-N-[[2-(2-oxa-6-azaspiro[3.3]heptan-6-yl)-3-pyridyl]methyl]pyridazine-4-carboxamide] |
| 500 to 1000 | N#Cc1ccc(-c2cc(C(=O)NCc3cc(F)cnc3N3CCOCC3)cnn2)cc1 [Example 53, 6-(4-cyanophenyl)-N-[(5-fluoro-2-morpholino-3-pyridyl)methyl]pyridazine-4-carboxamide] |
| < 500 | O=C(NCc1ccccc1N1CCOCC1)c1cnnc(-c2ccc(Cl)cc2)c1 [Example 55, 6-(4-chlorophenyl)-N-[(2-morpholinophenyl)methyl]pyridazine-4-carboxamide] |
| < 500 | O=C(NCc1ccccc1N1CCOCC1)c1cnnc(-c2ccc(OC(F)(F)F)cc2)c1 [Example 57, 6-[4-(trifluoromethoxy)phenyl]-N-[(2-morpholinophenyl)methyl]pyridazine-4-carboxamide] |

| SMILES | IC50 [nM] |
| --- | --- |
| Cc1ccccc1CNC(=O)c1cnnc(-c2ccc(OCC3CC3)c(Cl)c2)c1 [Example 37, 6-[3-chloro-4-(cyclopropylmethoxy)phenyl]-N-(o-tolylmethyl)pyridazine-4-carboxamide] | < 500 |
